Measurements as given in patent US20250136568A1, “FUSED HETEROCYCLIC COMPOUNDS AS PI3KALPHA INHIBITORS” (Nanjing Zenshine Pharmaceuticals Co., Ltd., priority 2021, published 2025).

Key:
Assay type in all cases: cell-based
[1] = test system: PI3Kα H1047R mutation cell line MDA-MB-453; test: Cell Proliferation IC50 Assay (CellTiter-Glo), MDA-MB-453; conditions: Homo sapiens; MDA-MB-453 (H1047R), 72 hours, CellTiter-Glo; read-out: IC50 (μM) MDA-MB-453
Method in brief: (§1)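 Read-out was CellTiter-Glo luminescence after 72 h of compound exposure at 37 °C, 5% CO2. Cells had been plated overnight in complete medium before the compound was added at a 200-fold final dilution. IC50 was derived from percent inhibition.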

[2] = test system: PI3Kα wide type cell line SK-BR-3; test: Cell Proliferation IC50 Assay (CellTiter-Glo), SK-BR-3; conditions: Homo sapiens; SK-BR-3 (PI3Kα wild type), 72 hours, CellTiter-Glo; read-out: IC50 (μM) SK-BR-3
Method in brief: as §1

[3] = test system: PI3Kα H1047R mutation cell line T-47D; test: Cell Proliferation IC50 Assay (CellTiter-Glo), T-47D; conditions: Homo sapiens, T47D, 72 h, T47D (H1047R), 72 hours, CellTiter-Glo; read-out: IC50 (μM) T47D
Method in brief: as §1

Row | Structure (SMILES) | IC50 [1] [µM] | IC50 [2] [µM] | IC50 [3] [µM]
1 | Cc1cc(C(C)Nc2ccccc2C(=O)O)c2oc(C3CCN(C(=O)OC(C)(C)C)CC3)cc(=O)c2c1 (stereo not drawn) [Example 13, 2-((1-(2-(1-(tert-butoxycarbonyl)piperidin-4-yl)-6-methyl-4-oxo-4H-chromen-8-yl)ethyl)amino)benzoic acid] | 2.29 | > 10 | 1.33
2 | Cc1cc(C(C)Nc2ccccc2C(=O)O)c2oc(C3=CCN(C(=O)OC(C)(C)C)CC3)cc(=O)c2c1 (stereo not drawn) [Example 14, 2-((1-(2-(1-(tert-butoxycarbonyl)-1,2,3,6-tetrahydropyridin-4-yl)-6-methyl-4-oxo-4H-chromen-8-yl)ethyl)amino)benzoic acid] | 1.27 | > 10 | 1
3 | Cc1cc(C(C)Nc2ccccc2C(=O)O)c2oc(C3CCNCC3)cc(=O)c2c1 (stereo not drawn) [Example 15, 2-((1-(6-methyl-4-oxo-2-(piperidin-4-yl)-4H-chromen-8-yl)ethyl)amino)benzoic acid] | > 10 | > 10 | > 10
4 | Cc1cc(C(C)Nc2ccccc2C(=O)O)c2oc(C3CCN(c4ccccc4)CC3)cc(=O)c2c1 (stereo not drawn) [Example 18, 2-((1-(6-methyl-4-oxo-2-(1-phenylpiperidin-4-yl)-4H-chromen-8-yl)ethyl)amino)benzoic acid] | 0.77 | > 10 | 0.31
5 | Cc1cc(C(C)Nc2ccccc2C(=O)O)c2oc(C3=CCN(c4ccccc4)CC3)cc(=O)c2c1 (stereo not drawn) [Example 19, 2-((1-(6-methyl-4-oxo-2-(1-phenyl-1,2,3,6-tetrahydropyridin-4-yl)-4H-chromen-8-yl)ethyl)amino)benzoic acid] | 1.39 | > 10 | 0.35
6 | Cc1cc(C(C)Nc2ccccc2C(=O)O)c2oc(-c3ccc4c(c3)CN(C)C4=O)c(C)c(=O)c2c1 (stereo not drawn) [Example 20, 2-((1-(3,6-dimethyl-2-(2-methyl-1-oxoisoindolin-5-yl)-4-oxo-4H-chromen-8-yl)ethyl)amino)benzoic acid] | 0.18 | > 10 | 0.12
7 | Cc1cc(C(C)Nc2ccc(Cl)nc2C(=O)O)c2oc(-c3ccc4c(c3)CN(C)C4=O)c(C)c(=O)c2c1 (stereo not drawn) [Example 22, 6-chloro-3-((1-(3,6-dimethyl-2-(2-methyl-1-oxoisoindolin-5-yl)-4-oxo-4H-chromen-8-yl)ethyl)amino)picolinic acid] | 0.63 | 5.07 | 0.72
8 | Cc1cc(C(C)Nc2ccccc2C(=O)O)c2oc(-c3ccc4c(c3)C(=O)N(C)C4)cc(=O)c2c1 (stereo not drawn) [Example 23, 2-((1-(6-methyl-2-(2-methyl-3-oxoisoindolin-5-yl)-4-oxo-4H-chromen-8-yl)ethyl)amino)benzoic acid] | 6.3 | > 10 | 3.2
9 | Cc1cc(C(C)Nc2ccccc2C(=O)O)c2oc(-c3cc4ccccc4[nH]3)cc(=O)c2c1 (stereo not drawn) [Example 25, 2-((1-(2-(1H-indol-2-yl)-6-methyl-4-oxo-4H-chromen-8-yl)ethyl)amino)benzoic acid] | 0.32 | > 10 | 0.27
10 | Cc1cc(C(C)Nc2ccccc2C(=O)O)c2oc(-c3cccs3)cc(=O)c2c1 (stereo not drawn) [Example 26, 2-((1-(6-methyl-4-oxo-2-(thiophen-2-yl)-4H-chromen-8-yl)ethyl)amino)benzoic acid] | 0.83 | > 10 | 0.66
11 | CC(=O)N1CCC(c2cc(=O)c3cc(C)cc(C(C)Nc4ccccc4C(=O)O)c3o2)CC1 (stereo not drawn) [Example 28, 2-((1-(2-(1-acetylpiperidin-4-yl)-6-methyl-4-oxo-4H-chromen-8-yl)ethyl)amino)benzoic acid] | 3.61 | > 10 | 1.77
12 | Cc1cc(C(C)Nc2ccccc2C(=O)O)c2oc(C3CCN(C(=O)C(F)(F)F)CC3)cc(=O)c2c1 (stereo not drawn) [Example 29, 2-((1-(6-methyl-4-oxo-2-(1-(2,2,2-trifluoroacetyl)piperidin-4-yl)-4H-chromen-8-yl)ethyl)amino)benzoic acid] | > 10 | > 10 | 4.13
